# Patent publication US20050080113A1, “Medicinal compositions” (priority 2001, published 2005)
row,Compound,melting point [°C]
1,"Cc1cccc(-c2nc(N3CCN(c4ccccc4)C3=O)sc2-c2ccnc(C)c2)c1 [H 67, 1 [4 (3 methylphenyl)-5 (2 methyl-4 pyridyl)-1,3 thiazol-2-yl]-3 phenylimidazolidin-2 one]",180 to 182
2,"Cc1cccc(-c2nc(-c3ccc(S(C)(=O)=O)cc3)sc2-c2cc[n+]([O-])c(C)c2)c1 [H 68-1, 4 [4 (3 methylphenyl)-2-(4 methylsulfonylphenyl)-1,3 thiazol-5 yl]-2 methylpyridine N-oxide]",197 to 198
3,"CCc1nc(-c2cccc(C)c2)c(-c2ccnc(CC#N)c2)s1 [H 71, 5 (2 cyanomethyl-4 pyridyl)-2 ethyl-4 (3 methylphenyl)-1,3-thiazole]",68 to 69
4,"Cc1cccc(-c2nc(-c3ccc(S(C)(=O)=O)cc3)sc2-c2ccnc(CO)c2)c1 [H 72, 4 [4 (3 methylphenyl)-2 (4 methylsulfonylphenyl)-1,3 thiazol-5 yl]-2 pyridylmethanol]",172 to 173
5,"CCc1nc(-c2cccc(Br)c2)c(-c2ccnc(NC(=O)OC(C)(C)C)c2)s1 [H 75-1, 4 (3 bromophenyl)-5 [2-(tert-butoxycarbonylamino)-4 pyridyl]-2 ethyl-1,3 thiazole]",172 to 174
6,"CCc1nc(-c2cccc(Br)c2)c(-c2ccnc(N)c2)s1 [H 75-2, 4 [4 (3 bromophenyl)-2-ethyl-1,3 thiazol-5 yl]-2 pyridylamine]",132 to 134
7,"CCc1nc(-c2cccc(C#N)c2)c(-c2ccnc(N)c2)s1 [H 76, 4 [4 (3 cyanophenyl)-2 ethyl-1,3 thiazol-5 yl]-2 pyridylamine]",178 to 179
8,"CCc1nc(-c2cccc(C(=O)O)c2)c(-c2ccnc(N)c2)s1 [H 77, 3 [5 (2 amino-4 pyridyl)-2 ethyl-1,3 thiazol-4 yl]benzoic acid]",273 to 274
9,"CCc1nc(-c2cccc(C(=O)OC)c2)c(-c2ccnc(N)c2)s1 [H 78, methyl 3 [5 (2 amino-4 pyridyl)-2 ethyl-1,3 thiazol-4-yl]benzoate]",173 to 174
10,"CCc1nc(-c2ccccc2)c(-c2ccnc(NC(=O)OC(C)(C)C)c2)s1 [H 79-1, 5 [2 (tert-butoxycarbonylamino)-4 pyridyl]-2 ethyl-4 phenyl-1,3 thiazole]",154 to 155
11,"CC(C)(C)OC(=O)N1CCC(c2nc(-c3cccc(Cl)c3)c(-c3ccnc(N)c3)s2)CC1 [H 80, 4 [2 (1 tert-butoxycarbonylpiperidin-4 yl)-4 (3 chlorophenyl)-1,3 thiazol-5 yl]-2 pyridylamine]",143 to 145
12,"CCc1nc(-c2ccccc2)c(-c2ccnc(NC(C)=O)c2)s1 [H 82-1, N-[4 (2 ethyl-4 phenyl-1,3-thiazol-5 yl)-2 pyridyl]acetamide]",175 to 176
13,"CCc1nc(-c2ccc(F)cc2)c(-c2ccnc(NC(C)=O)c2)s1 [H 82-2, N-[4 [2 ethyl-4 (4-fluorophenyl)-1,3 thiazol-5 yl]-2 pyridyl]acetamide]",190 to 191
14,"CCc1nc(-c2cccc(C(F)(F)F)c2)c(-c2ccnc(NC(C)=O)c2)s1 [H 82-3, N-[4 [2 ethyl-4 (3-trifluoromethylphenyl)-1,3 thiazol-5 yl]-2 pyridyl]acetamide]",146 to 147
15,"CCc1nc(-c2ccc(F)c(C)c2)c(-c2ccnc(NC(C)=O)c2)s1 [H 82-4, N-[4 [2 ethyl-4 (4 fluoro-3 methylphenyl)-1,3 thiazol-5 yl]-2 pyridyl]acetamide]",142 to 143
16,"CCc1nc(-c2cccc(F)c2)c(-c2ccnc(NC(C)=O)c2)s1 [H 82-5, N-[4 [2 ethyl-4 (3-fluorophenyl)-1,3 thiazol-5 yl]-2 pyridyl]acetamide]",141 to 142
17,"CCc1nc(-c2ccc(Cl)cc2)c(-c2ccnc(NC(C)=O)c2)s1 [H 82-6, N-[4 [4 (4 chlorophenyl)-2-ethyl-1,3 thiazol-5 yl]-2 pyridyl]acetamide]",190 to 191
18,"CCc1cccc(-c2nc(CC)sc2-c2ccnc(NC(C)=O)c2)c1 [H 82-7, N-[4 [2 ethyl-4 (3-ethylphenyl)-1,3 thiazol-5 yl]-2 pyridyl]acetamide]",112 to 113
19,"CCc1nc(-c2cccc(C(C)C)c2)c(-c2ccnc(NC(C)=O)c2)s1 [H 82-8, N-[4 [2 ethyl-4 [3 (1-methylethyl)phenyl]-1,3 thiazol-5 yl]-2 pyridyl]acetamide]",116 to 117
20,"CCCc1cccc(-c2nc(CC)sc2-c2ccnc(NC(C)=O)c2)c1 [H 82-9, N-[4 [2 ethyl-4 (3-propylphenyl)-1,3 thiazol-5 yl]-2 pyridyl]acetamide]",121 to 122
21,"CC(=O)Nc1cc(-c2sc(C)nc2-c2cccc(C)c2)ccn1 [H 82-10, N-[4 [2 methyl-4 (3-methylphenyl)-1,3 thiazol-5 yl]-2 pyridyl]acetamide]",162 to 163
22,"CC(=O)Nc1cc(-c2scnc2-c2cccc(C)c2)ccn1 [H 82-11, N-[4 [4 (3 methylphenyl)-1,3 thiazol-5 yl]-2 pyridyl]acetamide]",149 to 150
23,"CSc1ccc(-c2nc(-c3cccc(C)c3)c(-c3ccnc(NC(C)=O)c3)s2)cc1 [H 82-12, N-[4 [4 (3 methylphenyl)-2 [4 (methylthio)phenyl]-1,3 thiazol-5 yl]-2 pyridyl]acetamide]",181 to 182
24,"CCCC(=O)Nc1cc(-c2sc(CC)nc2-c2cccc(Cl)c2)ccn1 [H 86, N-[4 [4 (3 chlorophenyl)-2-ethyl-1,3 thiazol-5 yl]-2 pyridyl]butyramide]",119 to 120
25,"CCc1nc(-c2cccc(C)c2)c(-c2ccnc(NC(=O)CC3CCCC3)c2)s1 [H 89, N-[4 [2 ethyl-4 (3-methylphenyl)-1,3 thiazol-5 yl]-2 pyridyl]cyclopentylacetamide]",85 to 86
26,"CC(=O)Nc1cc(-c2sc(C3CCN(C(C)=O)CC3)nc2-c2cccc(Cl)c2)ccn1 [H 93, N-[4 [2 (1 acetylpiperidin-4 yl)-4 (3 chlorophenyl)-1,3-thiazol-5 yl]-2 pyridyl]acetamide]",160 to 161
27,"CCC(=O)Nc1cc(-c2sc(C3CCN(C(C)=O)CC3)nc2-c2cccc(Cl)c2)ccn1 [H 94, N-[4 [2 (1 acetylpiperidin-4-yl)-4 (3 chlorophenyl)-1,3 thiazol-5 yl]-2-pyridyl]propionamide]",174 to 175

# More lines, now with the values ahead:
row,melting point [°C],Compound
1,139 to 140,"CCC(=O)Nc1cc(-c2sc(CC)nc2-c2ccccc2)ccn1 [H 84-1, N-[4 (2 ethyl-4 phenyl-1,3-thiazol-5 yl)-2 pyridyl]propionamide]"
2,156 to 157,"CCC(=O)Nc1cc(-c2sc(CC)nc2-c2ccc(F)cc2)ccn1 [H 84-2, N-[4 [2 ethyl-4 (4-fluorophenyl)-1,3 thiazol-5 yl]-2 pyridyl]propionamide]"
3,126 to 127,"CCC(=O)Nc1cc(-c2sc(CC)nc2-c2cccc(C(F)(F)F)c2)ccn1 [H 84-3, N-[4 [2 ethyl-4 (3-trifluoromethylphenyl)-1,3 thiazol-5 yl]-2 pyridyl]propionamide]"
4,105 to 107,"CCC(=O)Nc1cc(-c2sc(CC)nc2-c2ccc(F)c(C)c2)ccn1 [H 84-4, N-[4 [2 ethyl-4 (4 fluoro-3 methylphenyl)-1,3 thiazol-5 yl]-2 pyridyl]propionamide]"
5,121 to 122,"CCC(=O)Nc1cc(-c2sc(CC)nc2-c2cccc(F)c2)ccn1 [H 84-5, N-[4 [2 ethyl-4 (3-fluorophenyl)-1,3 thiazol-5 yl]-2 pyridyl]propionamide]"
6,152 to 153,"CCC(=O)Nc1cc(-c2sc(CC)nc2-c2ccc(Cl)cc2)ccn1 [H 84-6, N-[4 [4 (4 chlorophenyl)-2-ethyl-1,3 thiazol-5 yl]-2 pyridyl]propionamide]"
7,93 to 94,"CCC(=O)Nc1cc(-c2sc(CC)nc2-c2cccc(C(C)C)c2)ccn1 [H 84-7, N-[4 [2 ethyl-4 [3 (1-methylethyl)phenyl]-1,3 thiazol-5 yl]-2 pyridyl]propionamide]"
8,124 to 125,"CCCc1cccc(-c2nc(CC)sc2-c2ccnc(NC(=O)CC)c2)c1 [H 84-8, N-[4 [2 ethyl-4 (3-propylphenyl)-1,3 thiazol-5 yl]-2 pyridyl]propionamide]"
9,81 to 82,"CCCCC(=O)Nc1cc(-c2sc(CC)nc2-c2cccc(C)c2)ccn1 [H 87-1, N-[4 [2 ethyl-4 (3-methylphenyl)-1,3 thiazol-5 yl]-2 pyridyl]valeramide]"
10,84 to 85,"CCCCCC(=O)Nc1cc(-c2sc(CC)nc2-c2cccc(C)c2)ccn1 [H 87-2, N-[4 [2 ethyl-4 (3-methylphenyl)-1,3 thiazol-5 yl]-2 pyridyl]hexanamide]"
11,109 to 110,"CCCCC(=O)Nc1cc(-c2sc(CC)nc2-c2cccc(Cl)c2)ccn1 [H 88-1, N-[4 [4 (3 chlorophenyl)-2-ethyl-1,3 thiazol-5 yl]-2 pyridyl]valeramide]"
12,114 to 115,"CCCCCC(=O)Nc1cc(-c2sc(CC)nc2-c2cccc(Cl)c2)ccn1 [H 88-2, N-[4 [4 (3 chlorophenyl)-2-ethyl-1,3 thiazol-5 yl]-2 pyridyl]hexanamide]"
13,121 to 122,"CCc1nc(-c2cccc(Cl)c2)c(-c2ccnc(NC(=O)CC3CCCC3)c2)s1 [H 90-1, N-[4 [4 (3 chlorophenyl)-2-ethyl-1,3 thiazol-5 yl]-2 pyridyl]cyclopentylacetamide]"
14,149 to 150,"CCc1nc(-c2ccc(Cl)cc2)c(-c2ccnc(NC(=O)CC3CCCC3)c2)s1 [H 90-2, N-[4 [4 (4 chlorophenyl)-2-ethyl-1,3 thiazol-5 yl]-2 pyridyl]cyclopentylacetamide]"
15,222 to 223,"CC(=O)Nc1cc(-c2sc(-c3ccc(S(C)(=O)=O)cc3)nc2-c2cccc(C)c2)ccn1 [H 98-1, N-[4 [4 (3 methylphenyl)-2-(4 methylsulfonylphenyl)-1,3 thiazol-5 yl]-2 pyridyl]acetamide]"
16,238 to 239,"CCC(=O)Nc1cc(-c2sc(-c3ccc(S(C)(=O)=O)cc3)nc2-c2cccc(C)c2)ccn1 [H 98-2, N-[4 [4 (3 methylphenyl)-2-(4 methylsulfonylphenyl)-1,3 thiazol-5 yl]-2 pyridyl]propionamide]"
